Experiments:
Assay type in all cases: cell-based
[1] = target: T1, zebrafish β1 homopentameric GABAA receptor (Danio rerio, UniProt F1QPW7); assay: two-electrode voltage clamp, Xenopus oocytes, GABA-evoked current; conditions: agonist at 10 mM only; -50 mV, pH 7.5
T1 construct: gene gabrb1; homopentamer
T1 sequence (F1QPW7 29-484): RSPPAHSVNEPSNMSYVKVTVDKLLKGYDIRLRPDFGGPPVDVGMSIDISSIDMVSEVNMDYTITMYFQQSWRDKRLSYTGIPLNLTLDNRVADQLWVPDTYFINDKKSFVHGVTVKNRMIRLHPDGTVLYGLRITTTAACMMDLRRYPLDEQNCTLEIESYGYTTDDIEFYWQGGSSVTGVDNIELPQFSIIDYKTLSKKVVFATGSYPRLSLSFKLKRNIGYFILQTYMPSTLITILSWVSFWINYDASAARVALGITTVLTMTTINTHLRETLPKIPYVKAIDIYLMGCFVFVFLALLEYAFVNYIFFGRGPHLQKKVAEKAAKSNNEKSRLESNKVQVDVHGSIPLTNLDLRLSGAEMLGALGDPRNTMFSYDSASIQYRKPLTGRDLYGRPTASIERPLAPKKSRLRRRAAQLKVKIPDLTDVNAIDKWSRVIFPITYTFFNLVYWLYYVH

[2] = target: T2, zebrafish β3 homopentameric GABAA receptor (Danio rerio, UniProt A0A0R4ILP2); assay: as above; conditions: agonist at 10 mM only; -50 mV, pH 7.5
T2 construct: gene gabrb3; homopentamer
T2 sequence (A0A0R4ILP2 26-498): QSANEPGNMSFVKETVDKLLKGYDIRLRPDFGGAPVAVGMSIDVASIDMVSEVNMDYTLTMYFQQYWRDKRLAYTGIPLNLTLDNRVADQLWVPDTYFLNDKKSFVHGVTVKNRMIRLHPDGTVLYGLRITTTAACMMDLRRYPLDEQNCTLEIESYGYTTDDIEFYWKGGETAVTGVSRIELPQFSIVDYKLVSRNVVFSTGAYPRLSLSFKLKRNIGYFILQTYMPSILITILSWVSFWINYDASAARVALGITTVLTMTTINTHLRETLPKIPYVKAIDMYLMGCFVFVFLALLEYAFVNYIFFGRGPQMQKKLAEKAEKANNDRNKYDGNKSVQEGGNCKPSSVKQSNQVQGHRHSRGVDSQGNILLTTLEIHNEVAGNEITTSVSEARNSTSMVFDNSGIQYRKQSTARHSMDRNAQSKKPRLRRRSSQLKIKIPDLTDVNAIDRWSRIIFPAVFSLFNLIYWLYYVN

[3] = target: T3, zebrafish β4 homopentameric GABAA receptor (Danio rerio, UniProt A0A2R8QJR5); assay: as above; conditions: agonist at 10 mM only; -50 mV, pH 7.5
T3 construct: gene gabrb4; homopentamer
T3 sequence (A0A2R8QJR5 26-482): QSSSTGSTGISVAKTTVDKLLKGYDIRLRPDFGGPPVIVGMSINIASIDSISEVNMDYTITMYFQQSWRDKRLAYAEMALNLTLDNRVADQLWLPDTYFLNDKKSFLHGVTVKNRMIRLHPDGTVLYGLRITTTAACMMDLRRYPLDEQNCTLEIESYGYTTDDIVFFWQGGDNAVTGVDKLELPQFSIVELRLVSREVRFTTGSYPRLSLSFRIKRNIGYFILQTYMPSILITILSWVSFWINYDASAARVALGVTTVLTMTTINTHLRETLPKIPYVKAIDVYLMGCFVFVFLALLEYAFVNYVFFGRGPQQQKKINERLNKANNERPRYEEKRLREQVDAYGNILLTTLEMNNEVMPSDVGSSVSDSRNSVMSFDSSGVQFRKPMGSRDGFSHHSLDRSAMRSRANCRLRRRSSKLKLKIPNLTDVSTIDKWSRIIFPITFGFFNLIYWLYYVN

[4] = target: T2, zebrafish β3 homopentameric GABAA receptor; assay: two-electrode voltage clamp, Xenopus oocytes, etomidate-evoked current

SMILES | two-electrode voltage clamp, Xenopus oocytes, GABA-evoked current [1] | two-electrode voltage clamp, Xenopus oocytes, GABA-evoked current [2] | two-electrode voltage clamp, Xenopus oocytes, GABA-evoked current [3] | EC50 [4] [µM]
NCCCC(=O)O [GABA] | either single β subunit yielded small currents | either single β subunit yielded small currents | either single β subunit yielded small currents | –
CCOC(=O)c1cncn1[C@H](C)c1ccccc1 [etomidate] | – | – | – | 30.3 ± 5.7

From PMC7973766, “Characterization of zebrafish GABAA receptor subunits” (Scientific Reports, 2021)
